Test results: PubChem BioAssay AID256 (DTP/NCI, 2004)
Inconclusive results and toxic doses are left out. The calls were made as follows: active = survival T/C of 150% or more; inactive = T/C below 125% in these data.

Test system: CD2F1 mice, L1210 leukemia ip, survival T/C
Assay: NCI In Vivo Anticancer Drug Screen. Data for tumor model L1210 Leukemia (intraperitoneal) in CD2F1 (CDF1) mice
Conditions: higher = longer survival
Procedure, shortened: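 Mice carrying a transplanted tumor received test compound or vehicle alone. The value is the measurement in the treated group divided by that in the vehicle-treated control group.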

[1] = endpoint: mean survival time, dose: 100.0 mg/kg/injection, schedule: Q01DX009 (ip), vehicle: saline with Tween-80
[2] = endpoint: mean survival time, dose: 100.0 mg/kg/injection, schedule: Q04DX003 (ip), vehicle: saline with Tween-80
[3] = endpoint: mean survival time, dose: 200.0 mg/kg/injection, schedule: Q01DX009 (ip), vehicle: saline with Tween-80
[4] = endpoint: mean survival time, dose: 200.0 mg/kg/injection, schedule: Q04DX003 (ip), vehicle: saline with Tween-80
[5] = endpoint: mean survival time, dose: 400.0 mg/kg/injection, schedule: Q04DX003 (ip), vehicle: saline with Tween-80
[6] = endpoint: mean survival time, dose: 100.0 mg/kg/injection, schedule: Q01DX001 (ip), vehicle: saline
[7] = endpoint: mean survival time, dose: 200.0 mg/kg/injection, schedule: Q01DX001 (ip), vehicle: saline
[8] = endpoint: mean survival time, dose: 100.0 mg/kg/injection, schedule: Q01DX009 (ip), vehicle: saline
[9] = endpoint: mean survival time, dose: 200.0 mg/kg/injection, schedule: Q01DX009 (ip), vehicle: saline
[10] = endpoint: mean survival time, dose: 400.0 mg/kg/injection, schedule: Q01DX009 (ip), vehicle: saline
[11] = endpoint: mean survival time, dose: 50.0 mg/kg/injection, schedule: Q01DX009 (ip), vehicle: saline with Tween-80
[12] = endpoint: mean survival time, dose: 25.0 mg/kg/injection, schedule: Q01DX009 (ip), vehicle: saline with Tween-80

Measured: T/C

Nc1ncnc2nc[nH]c12
inactive: endpoint: median survival time, dose: 70.0 mg/kg/injection, schedule: Q01DX009 (ip), vehicle: acid diluted with saline 98 % of control | endpoint: median survival time, dose: 70.0 mg/kg/injection, schedule: Q01DX009 (ip), vehicle: other 109 % of control | endpoint: median survival time, dose: 80.0 mg/kg/injection, schedule: Q01DX009 (ip), vehicle: acid diluted with saline 103 % of control | endpoint: median survival time, dose: 80.0 mg/kg/injection, schedule: Q01DX009 (ip), vehicle: other 112 % of control | endpoint: median survival time, dose: 90.0 mg/kg/injection, schedule: Q01DX009 (ip), vehicle: acid diluted with saline 101 % of control | endpoint: median survival time, dose: 90.0 mg/kg/injection, schedule: Q01DX009 (ip), vehicle: other 106 % of control

S=C1SCCN1C1CCCCC1
inactive: [1] 102 % of control | [2] 92 % of control | [3] 96 % of control | [4] 96 % of control | endpoint: mean survival time, dose: 400.0 mg/kg/injection, schedule: Q01DX009 (ip), vehicle: saline with Tween-80 93 % of control | [5] 92 % of control

CS(=O)(=O)OCCN(CCOS(C)(=O)=O)c1ccc(N=O)c(Cl)c1
inactive: [2] 124 % of control

Nc1nc(Br)nc2c1ncn2C1OC(CO)C(O)C1O (stereo not drawn)
inactive: endpoint: mean survival time, dose: 75.0 mg/kg/injection, schedule: Q01DX001 (ip), vehicle: saline 109 % of control

CN(C)C1c2cc(Cl)ccc2-c2ccc(Cl)cc21
inactive: endpoint: mean survival time, dose: 50.0 mg/kg/injection, schedule: Q01DX001 (ip), vehicle: carboxymethylcellulose (CMC) 101 % of control | endpoint: mean survival time, dose: 100.0 mg/kg/injection, schedule: Q01DX001 (ip), vehicle: carboxymethylcellulose (CMC) 95 % of control | endpoint: mean survival time, dose: 200.0 mg/kg/injection, schedule: Q01DX001 (ip), vehicle: carboxymethylcellulose (CMC) 101 % of control | endpoint: mean survival time, dose: 400.0 mg/kg/injection, schedule: Q01DX001 (ip), vehicle: carboxymethylcellulose (CMC) 98 % of control

[N-]=[N+]=NC1=C(Br)C(=O)OC1COC(=O)c1ccccc1 (stereo not drawn)
inactive: endpoint: mean survival time, dose: 50.0 mg/kg/injection, schedule: Q04DX002 (ip), vehicle: saline with Tween-80 90 % of control | endpoint: mean survival time, dose: 100.0 mg/kg/injection, schedule: Q04DX002 (ip), vehicle: saline with Tween-80 90 % of control

CCN=C(N)/N=C(\N)C(Cl)(Cl)Cl
inactive: [6] 101 % of control | [7] 96 % of control | endpoint: mean survival time, dose: 400.0 mg/kg/injection, schedule: Q01DX001 (ip), vehicle: saline 90 % of control

O=S(=O)(F)c1ccc2nc(-c3ccccc3)cc(Cl)c2c1
inactive: [8] 111 % of control | [9] 108 % of control | [10] 109 % of control

O=S(=O)(O)CCCBr
inactive: [8] 93 % of control | [9] 105 % of control | [10] 100 % of control

CC(C)NC(=O)C1C=C2c3cccc4c3C(CN4)CC2N(C)C1 (stereo not drawn)
inactive: [11] 93 % of control | endpoint: mean survival time, dose: 50.0 mg/kg/injection, schedule: Q04DX003 (ip), vehicle: saline 94 % of control | [1] 100 % of control | endpoint: mean survival time, dose: 100.0 mg/kg/injection, schedule: Q04DX003 (ip), vehicle: saline 88 % of control | [3] 97 % of control | endpoint: mean survival time, dose: 200.0 mg/kg/injection, schedule: Q04DX003 (ip), vehicle: saline 94 % of control

C=C(CN(C)C)c1ccccn1
inactive: endpoint: mean survival time, dose: 75.0 mg/kg/injection, schedule: Q01DX001 (ip), vehicle: other 100 % of control

O=c1cc(NCCCc2ccccc2)[nH]c(=O)[nH]1
inactive: endpoint: mean survival time, dose: 100.0 mg/kg/injection, schedule: Q01DX001 (ip), vehicle: saline with Tween-80 100 % of control | endpoint: mean survival time, dose: 200.0 mg/kg/injection, schedule: Q01DX001 (ip), vehicle: saline with Tween-80 92 % of control | endpoint: mean survival time, dose: 400.0 mg/kg/injection, schedule: Q01DX001 (ip), vehicle: saline with Tween-80 93 % of control

O=C(CNC(=O)NCc1ccco1)N/N=C/c1cc(Br)ccc1O
inactive: endpoint: mean survival time, dose: 12.5 mg/kg/injection, schedule: Q01DX009 (ip), vehicle: saline with Tween-80 94 % of control | [12] 94 % of control | [11] 96 % of control | [3] 100 % of control

O=C(C[n+]1ccc2ccccc2c1)c1ccccc1
inactive: endpoint: mean survival time, dose: 25.0 mg/kg/injection, schedule: Q04DX003 (ip), vehicle: saline sonified 98 % of control | endpoint: mean survival time, dose: 50.0 mg/kg/injection, schedule: Q04DX003 (ip), vehicle: saline sonified 93 % of control

Cc1cccc[n+]1CC[n+]1ccccc1C
inactive: [6] 100 % of control | [7] 101 % of control

Cc1ccc(S(=O)(=O)N/N=C/c2ccccc2)cc1
inactive: endpoint: mean survival time, dose: 50.0 mg/kg/injection, schedule: Q01DX009 (ip), vehicle: Klucel (hydroxypropylcellulose) (HPC) 95 % of control | endpoint: mean survival time, dose: 100.0 mg/kg/injection, schedule: Q01DX009 (ip), vehicle: Klucel (hydroxypropylcellulose) (HPC) 98 % of control | endpoint: mean survival time, dose: 200.0 mg/kg/injection, schedule: Q01DX009 (ip), vehicle: Klucel (hydroxypropylcellulose) (HPC) 101 % of control | endpoint: mean survival time, dose: 400.0 mg/kg/injection, schedule: Q01DX009 (ip), vehicle: Klucel (hydroxypropylcellulose) (HPC) 91 % of control

COC1=CC2c3ccccc3C1C1C(OC)=CC2c2ccccc21
inactive: [12] 96 % of control | [11] 98 % of control | [1] 96 % of control | [2] 88 % of control

CC(=O)Nc1ccccc1C
inactive: [2] 97 % of control | [4] 97 % of control | [5] 99 % of control

CCOC(=O)C1(C(=O)OCC)C2CC=CCC21 (stereo not drawn)
inactive: endpoint: mean survival time, dose: 50.0 mg/kg/injection, schedule: Q01DX009 (ip), vehicle: acetone 100 % of control | endpoint: mean survival time, dose: 100.0 mg/kg/injection, schedule: Q01DX009 (ip), vehicle: acetone 92 % of control | endpoint: mean survival time, dose: 200.0 mg/kg/injection, schedule: Q01DX009 (ip), vehicle: acetone 97 % of control

Brc1ccc([I+]c2ccc(Br)cc2)cc1
inactive: endpoint: mean survival time, dose: 12.5 mg/kg/injection, schedule: Q04DX003 (ip), vehicle: saline with Tween-80 105 % of control | endpoint: mean survival time, dose: 25.0 mg/kg/injection, schedule: Q04DX003 (ip), vehicle: saline with Tween-80 95 % of control | endpoint: mean survival time, dose: 50.0 mg/kg/injection, schedule: Q04DX003 (ip), vehicle: saline with Tween-80 101 % of control | [5] 94 % of control

CC(=O)CC(=O)C(F)(F)F.CC(=O)CC(=O)C(F)(F)F.[O]=[V]
inactive: endpoint: mean survival time, dose: 3.8 mg/kg/injection, schedule: Q01DX009 (ip), vehicle: saline with Tween-80 95 % of control | endpoint: mean survival time, dose: 7.5 mg/kg/injection, schedule: Q01DX009 (ip), vehicle: saline with Tween-80 93 % of control | endpoint: mean survival time, dose: 15.0 mg/kg/injection, schedule: Q01DX009 (ip), vehicle: saline with Tween-80 92 % of control

CC1C[C@@H](O)C(NC(=O)N(CCCl)N=O)[C@@H](O)C1 (stereo partly drawn)
active: endpoint: mean survival time, dose: 6.0 mg/kg/injection, schedule: Q01DX001 (ip), vehicle: saline 191 % of control | endpoint: mean survival time, dose: 9.0 mg/kg/injection, schedule: Q01DX001 (ip), vehicle: saline 367 % of control | endpoint: mean survival time, dose: 13.0 mg/kg/injection, schedule: Q01DX001 (ip), vehicle: saline 297 % of control | endpoint: mean survival time, dose: 20.0 mg/kg/injection, schedule: Q01DX001 (ip), vehicle: saline 500 % of control | endpoint: mean survival time, dose: 30.0 mg/kg/injection, schedule: Q01DX001 (ip), vehicle: saline 298 % of control

CC1OC(OCc2ccc(-c3ccccc3)cc2)CC(N)C1O (stereo not drawn)
inactive: endpoint: mean survival time, dose: 0.78 mg/kg/injection, schedule: Q01DX001 (ip), vehicle: water 94 % of control | endpoint: mean survival time, dose: 1.56 mg/kg/injection, schedule: Q01DX001 (ip), vehicle: water 97 % of control | endpoint: mean survival time, dose: 3.13 mg/kg/injection, schedule: Q01DX001 (ip), vehicle: water 95 % of control | endpoint: mean survival time, dose: 6.25 mg/kg/injection, schedule: Q01DX001 (ip), vehicle: water 106 % of control | endpoint: mean survival time, dose: 12.5 mg/kg/injection, schedule: Q01DX001 (ip), vehicle: water 97 % of control | endpoint: mean survival time, dose: 25.0 mg/kg/injection, schedule: Q01DX001 (ip), vehicle: water 105 % of control | endpoint: median survival time, dose: 1.56 mg/kg/injection, schedule: Q04DX003 (ip), vehicle: water 106 % of control | endpoint: median survival time, dose: 3.13 mg/kg/injection, schedule: Q04DX003 (ip), vehicle: water 98 % of control | endpoint: median survival time, dose: 6.25 mg/kg/injection, schedule: Q04DX003 (ip), vehicle: water 109 % of control | endpoint: median survival time, dose: 12.5 mg/kg/injection, schedule: Q04DX003 (ip), vehicle: water 100 % of control | endpoint: median survival time, dose: 25.0 mg/kg/injection, schedule: Q04DX003 (ip), vehicle: water 106 % of control

Cc1ccc(S(=O)(=O)OCC2CC3CCC2C3)cc1 (stereo not drawn)
inactive: endpoint: mean survival time, dose: 100.0 mg/kg/injection, schedule: Q01DX009 (ip), vehicle: other 102 % of control | endpoint: mean survival time, dose: 200.0 mg/kg/injection, schedule: Q01DX009 (ip), vehicle: other 102 % of control | endpoint: mean survival time, dose: 400.0 mg/kg/injection, schedule: Q01DX009 (ip), vehicle: other 93 % of control

CCN1/C(=C\c2ccc3cc(OC)ccc3[n+]2CC)[Se]c2ccc(OC)cc21
inactive: endpoint: mean survival time, dose: 9.5 mg/kg/injection, schedule: Q01DX001 (ip), vehicle: other 86 % of control
